In patent US10221440B2, “Method for determining the sensitivity of microorganisms to antimicrobial substances” (priority 2012, dated 2019):

Legend:
[1] = test system: bacteria in secretion from the wound of a dog with a wound infection; experiment: Express determination of bacteria sensitivity, wound secretion of a dog; assay type: cell-based; details: ampicillin 1 μg/ml in enriched Columbia Agar, 37° C., lawn in control after 4-6 hours
Method: Express determination of bacteria sensitivity to ampicillin while inoculating material obtained from an animal (a dog) with a wound infection.
The method was carried out similarly to the way described in example 1.
Material to be investigated: secretion from the wound.
Nutrient medium: Columbia Agar medium enriched with horse serum and sheep red blood cells, vitamins and amino acids. Ampicillin was added to the medium in maximum concentration achievable at the location where the material was taken—1 μg/ml.
Material taken from the wound was plated using a swab on the medium in a Petri dish. Same medium and cultivation conditions (without ampicillin) were used for control purposes.
The culture was incubated at temperature of 37° C.

[2] = test system: bacteria in urine of a patient suffering from cystitis; assay type: cell-based
[3] = test system: aerobes in secretion of subgingival space of a patient with a disease of periodontium; experiment: Sensitivity to antibiotics and their mixture, subgingival secretion, aerobic conditions; assay type: cell-based, aerobic bacteria; details: Columbia Agar, dishes 1-3, 37° C., whole observation period; lawn in control after 4 hours
Excerpt: (§1) Express determination of sensitivity to a mixture of antibiotics, namely gentamicin (mainly affects aerobic bacteria) and metronidazole (active against anaerobic bacteria and microaerophils), while inoculating material obtained from a patient suffering from a disease of periodontium. Material to be investigated: freshly collected secretion of subgingival space. Nutrient medium: Columbia Agar medium enriched with sheep red blood cells and horse serum was used for cultivation in aerobic conditions. Anaerobic microorganisms were detected using Schaedler Agar containing sheep red blood cells and serum. […] were added to the medium: gentamicin (active against a wide range of aerobes) and metronidazole that selectively affects anaerobic bacteria. Medium in dishes 1 and 1a contains gentamicin; medium in dishes 2 and 2a contains metronidazole; medium in dishes 3 and 3a contains gentamicin and metronidazole; dishes 4 and 4a contain only the nutrient medium (control). The secretion of subgingival space was diluted fivefold using isotonic solution of sodium chloride and plated in the amount of 0.05 ml per dish using a spreader. […] The results were analyzed after 4, 8, 12, 20, 24 and 48 hours after the inoculation (anaerobic bacteria are characterized by lengthy growth).

[4] = test system: anaerobes in secretion of subgingival space of a patient with a disease of periodontium; experiment: Sensitivity to antibiotics and their mixture, subgingival secretion, anaerobic conditions; assay type: cell-based, anaerobic bacteria; details: Schaedler Agar, dishes 1a-3a, 37° C., after 8 hours
Excerpt: as §1

[5] = test system: fungi that cause diseases of plants (powdery mildew); experiment: Express determination of sensitivity of plant-disease fungi to antifungal preparations; assay type: cell-based; details: 30° C., nystatin 0.4 mg/l; for growth in the well with the antifungal preparation: Sabouraud Agar with gentamicin 0.01 mg/l, after 8 hours, propiconazole 1%
Method: Express determination of the sensitivity of fungi that cause diseases of plants (powdery mildew) to antifungal preparations.
Material to be investigated: wipe sampling of isotonic solution of sodium chloride taken from affected areas of a leaf of a plant that has indications of fungi growth.
Nutrient medium: Sabouraud Agar medium enriched with mineral components, placed into a plate with six wells. in order to prevent the growth of bacteria, gentamicin was added to the agar in the amount of 0.01 mg/l. The antifungal preparations to be investigated were also added to the medium: 1st well—propiconazole, in final concentration of 1%; 2nd well—nystatin (0.4 mg/l); 3rd well—control without any antifungal preparations.
1.0 ml of isotonic solution a sodium chloride was washed from […] of the affected area. The material was plated using an inoculation loop.
The inoculations were cultivated at 30° C. The results were analyzed after 6, 8, 12, 20, 24 and 48 hours after the inoculation.

Row | Molecule | microbial growth in aerobic conditions [3] | microbial growth in anaerobic conditions [4] | growth in the well with the antifungal preparation [5] | further results
1 | CC1(C)S[C@@H]2[C@H](NC(=O)[C@H](N)c3ccccc3)C(=O)N2[C@H]1C(=O)O [ampicillin] |  |  |  | bacterial growth in the dish with the antibiotic [1]: No bacterial growth
2 | CC[C@H]1OC(=O)[C@H](C)[C@@H](O[C@H]2C[C@@](C)(OC)[C@@H](O)[C@H](C)O2)[C@H](C)[C@@H](O[C@@H]2O[C@H](C)C[C@H](N(C)C)[C@H]2O)[C@](C)(O)C[C@@H](C)CN(C)[C@H](C)[C@@H](O)[C@]1(C)O [azithromycin] |  |  |  | growth of bacteria in the presence of the antibiotic [2]: no growth
3 | Cc1ncc([N+](=O)[O-])n1CCO [metronidazole] | Microbial growth | Microbial growth |  | 
4 | C[C@@H]1[C@H](O)[C@@H](C)/C=C/C=C/CC/C=C/C=C/C=C/C=C/C(O[C@H]2O[C@H](C)[C@@H](O)[C@H](N)[C@@H]2O)CC2O[C@](O)(CC(O)C(O)CCC(O)CC(O)CC(O)CC(=O)O[C@H]1C)CC(O)C2C(=O)O (stereo partly drawn) [nystatin] |  |  | growth was observed | sensitivity of the mold to the preparation [5]: resistant
5 | CCCC1COC(Cn2cncn2)(c2ccc(Cl)cc2Cl)O1 (stereo not drawn) [propiconazole] |  |  | No growth | 
6 | gentamicin | Microbial growth | Microbial growth |  | 
